What was measured:
Type in all cases: cell-based
[1] = target: T1, Transient receptor potential cation channel subfamily V member 3 (Homo sapiens, UniProt Q8NET8); assay: (§1) Radiometric Calcium Assay: The inhibition of TRPA1 receptor activation was measured as inhibition of allylisothiocyanate (AITC) induced cellular uptake of radioactive calcium. Test compounds were dissolved in DMSO to prepare 10 mM stock solution and then diluted using plain medium with 0.1% BSA and 1.8 mM CaCl2 to get desired concentration. Final concentration of DMSO in the reaction was 0.5% (v/v). Human TRPA1 expressing CHO cells were grown in F-12 DMEM medium with 10% FBS, 1% penicillin-streptomycin solution, and 400 ug/ml of G-418. Cells were seeded 24 h prior to the assay in 96 well plates so as to get 50,000 cells per well on the day of experiment. Cells were treated with test compounds for 10 min followed by addition of AITC at a final concentration of 30 micromolar and 5 uCi/ml 45Ca+2 for 3 min at 25° C. Cells were washed and lysed using buffer containing 1% Triton X-100, 0.1% deoxycholate and 0.1% SDS. Radioactivity in the lysate was measured in Packard Top count.
T1 sequence (Q8NET8 whole entry): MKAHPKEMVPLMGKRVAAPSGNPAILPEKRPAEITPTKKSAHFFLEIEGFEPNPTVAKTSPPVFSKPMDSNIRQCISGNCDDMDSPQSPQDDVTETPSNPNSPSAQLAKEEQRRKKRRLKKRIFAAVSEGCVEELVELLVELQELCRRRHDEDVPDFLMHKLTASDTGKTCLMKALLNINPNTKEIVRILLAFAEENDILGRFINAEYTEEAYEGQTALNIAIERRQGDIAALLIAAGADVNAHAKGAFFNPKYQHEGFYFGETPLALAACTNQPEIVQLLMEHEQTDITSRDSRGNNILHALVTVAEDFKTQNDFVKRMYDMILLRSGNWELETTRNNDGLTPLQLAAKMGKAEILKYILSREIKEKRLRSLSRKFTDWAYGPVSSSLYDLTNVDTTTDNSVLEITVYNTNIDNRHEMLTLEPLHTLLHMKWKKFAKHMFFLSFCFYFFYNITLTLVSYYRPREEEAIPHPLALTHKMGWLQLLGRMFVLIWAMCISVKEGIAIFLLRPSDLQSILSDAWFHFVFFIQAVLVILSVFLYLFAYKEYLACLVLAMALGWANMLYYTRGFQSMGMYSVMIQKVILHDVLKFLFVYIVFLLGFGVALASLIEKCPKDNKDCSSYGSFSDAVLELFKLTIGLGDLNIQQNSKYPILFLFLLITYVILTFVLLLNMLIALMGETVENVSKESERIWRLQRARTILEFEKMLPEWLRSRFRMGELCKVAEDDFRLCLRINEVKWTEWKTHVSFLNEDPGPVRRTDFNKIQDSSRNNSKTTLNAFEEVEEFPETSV

[2] = target: Transient receptor potential cation channel subfamily V member 4 (Homo sapiens, UniProt Q9HBA0); assay: as §1
Transient receptor potential cation channel subfamily V member 4, sequence (Q9HBA0 whole entry): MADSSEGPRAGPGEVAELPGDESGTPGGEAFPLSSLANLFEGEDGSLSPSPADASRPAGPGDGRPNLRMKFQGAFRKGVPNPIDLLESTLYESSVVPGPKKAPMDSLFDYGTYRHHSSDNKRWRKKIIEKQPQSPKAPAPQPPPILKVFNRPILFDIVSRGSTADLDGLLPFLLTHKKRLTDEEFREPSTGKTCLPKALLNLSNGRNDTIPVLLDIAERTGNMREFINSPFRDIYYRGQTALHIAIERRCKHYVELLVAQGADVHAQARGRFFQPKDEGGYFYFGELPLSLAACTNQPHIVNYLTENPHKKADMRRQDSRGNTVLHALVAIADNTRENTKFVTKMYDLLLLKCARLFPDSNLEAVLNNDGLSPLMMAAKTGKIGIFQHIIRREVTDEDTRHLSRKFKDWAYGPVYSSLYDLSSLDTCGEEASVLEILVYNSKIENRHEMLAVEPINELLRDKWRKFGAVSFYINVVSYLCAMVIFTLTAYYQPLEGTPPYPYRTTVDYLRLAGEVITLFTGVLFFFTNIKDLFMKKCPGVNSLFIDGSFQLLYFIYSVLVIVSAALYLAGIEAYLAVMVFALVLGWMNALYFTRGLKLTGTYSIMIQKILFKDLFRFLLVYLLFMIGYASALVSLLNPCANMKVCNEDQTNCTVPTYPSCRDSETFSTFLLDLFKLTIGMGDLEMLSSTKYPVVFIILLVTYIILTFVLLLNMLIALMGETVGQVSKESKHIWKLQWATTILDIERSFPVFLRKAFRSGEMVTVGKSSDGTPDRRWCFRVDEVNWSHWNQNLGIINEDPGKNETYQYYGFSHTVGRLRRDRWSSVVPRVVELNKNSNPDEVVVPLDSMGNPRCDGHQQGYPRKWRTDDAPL

[3] = target: Transient receptor potential cation channel subfamily M member 8 (Homo sapiens, UniProt Q7Z2W7); assay: as §1
Transient receptor potential cation channel subfamily M member 8, sequence (Q7Z2W7 whole entry): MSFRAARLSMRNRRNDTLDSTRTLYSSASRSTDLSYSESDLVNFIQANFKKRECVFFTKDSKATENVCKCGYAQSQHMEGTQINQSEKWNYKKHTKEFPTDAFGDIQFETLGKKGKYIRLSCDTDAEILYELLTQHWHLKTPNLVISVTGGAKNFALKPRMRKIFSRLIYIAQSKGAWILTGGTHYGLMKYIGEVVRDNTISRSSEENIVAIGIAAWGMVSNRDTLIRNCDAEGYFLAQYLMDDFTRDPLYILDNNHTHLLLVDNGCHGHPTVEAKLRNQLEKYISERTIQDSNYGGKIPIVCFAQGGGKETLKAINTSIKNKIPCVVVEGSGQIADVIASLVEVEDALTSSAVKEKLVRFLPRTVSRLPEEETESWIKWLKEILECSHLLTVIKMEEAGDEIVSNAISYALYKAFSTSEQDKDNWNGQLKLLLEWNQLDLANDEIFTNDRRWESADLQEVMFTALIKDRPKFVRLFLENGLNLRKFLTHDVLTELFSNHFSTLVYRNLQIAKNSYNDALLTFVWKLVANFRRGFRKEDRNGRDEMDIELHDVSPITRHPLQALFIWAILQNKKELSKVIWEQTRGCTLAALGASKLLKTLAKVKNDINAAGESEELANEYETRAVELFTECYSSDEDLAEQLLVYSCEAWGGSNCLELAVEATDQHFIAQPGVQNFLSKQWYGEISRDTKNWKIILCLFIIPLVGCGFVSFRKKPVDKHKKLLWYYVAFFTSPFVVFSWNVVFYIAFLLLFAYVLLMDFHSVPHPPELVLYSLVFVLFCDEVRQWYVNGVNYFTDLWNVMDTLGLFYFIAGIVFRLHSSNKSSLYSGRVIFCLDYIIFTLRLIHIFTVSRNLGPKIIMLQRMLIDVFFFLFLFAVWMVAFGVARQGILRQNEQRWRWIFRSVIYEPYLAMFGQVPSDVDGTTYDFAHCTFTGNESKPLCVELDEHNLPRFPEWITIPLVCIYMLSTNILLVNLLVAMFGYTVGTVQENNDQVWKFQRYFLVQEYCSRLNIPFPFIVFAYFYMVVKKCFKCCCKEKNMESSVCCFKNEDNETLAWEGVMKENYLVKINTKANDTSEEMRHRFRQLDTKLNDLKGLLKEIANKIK

[4] = target: Transient receptor potential cation channel subfamily V member 1 (Homo sapiens, UniProt Q8NER1); assay: as §1
Transient receptor potential cation channel subfamily V member 1, sequence (Q8NER1 whole entry): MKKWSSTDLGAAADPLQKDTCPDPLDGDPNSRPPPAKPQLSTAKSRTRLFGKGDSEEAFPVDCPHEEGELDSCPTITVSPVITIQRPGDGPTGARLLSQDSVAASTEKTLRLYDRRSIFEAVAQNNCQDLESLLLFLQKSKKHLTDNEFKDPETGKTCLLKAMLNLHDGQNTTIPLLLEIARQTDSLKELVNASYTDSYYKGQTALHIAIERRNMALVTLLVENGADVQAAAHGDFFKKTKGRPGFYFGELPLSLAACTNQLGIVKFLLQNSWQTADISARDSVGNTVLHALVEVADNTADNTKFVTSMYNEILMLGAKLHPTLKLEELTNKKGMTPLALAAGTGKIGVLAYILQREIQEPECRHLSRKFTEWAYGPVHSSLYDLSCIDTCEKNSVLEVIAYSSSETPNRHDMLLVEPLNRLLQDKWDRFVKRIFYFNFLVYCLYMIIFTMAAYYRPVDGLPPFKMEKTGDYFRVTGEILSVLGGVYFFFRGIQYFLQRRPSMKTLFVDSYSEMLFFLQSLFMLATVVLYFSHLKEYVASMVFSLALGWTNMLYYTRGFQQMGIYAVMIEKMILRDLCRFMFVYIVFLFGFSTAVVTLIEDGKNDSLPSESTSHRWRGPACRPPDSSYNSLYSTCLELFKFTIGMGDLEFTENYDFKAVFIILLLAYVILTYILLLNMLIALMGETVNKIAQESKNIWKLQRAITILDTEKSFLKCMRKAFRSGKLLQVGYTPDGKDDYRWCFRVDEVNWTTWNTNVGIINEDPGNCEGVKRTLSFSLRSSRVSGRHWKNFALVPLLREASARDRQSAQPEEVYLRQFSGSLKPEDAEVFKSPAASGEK

[5] = target: Transient receptor potential cation channel subfamily A member 1 (Homo sapiens, UniProt O75762); assay: as §1
Transient receptor potential cation channel subfamily A member 1, sequence (O75762 whole entry): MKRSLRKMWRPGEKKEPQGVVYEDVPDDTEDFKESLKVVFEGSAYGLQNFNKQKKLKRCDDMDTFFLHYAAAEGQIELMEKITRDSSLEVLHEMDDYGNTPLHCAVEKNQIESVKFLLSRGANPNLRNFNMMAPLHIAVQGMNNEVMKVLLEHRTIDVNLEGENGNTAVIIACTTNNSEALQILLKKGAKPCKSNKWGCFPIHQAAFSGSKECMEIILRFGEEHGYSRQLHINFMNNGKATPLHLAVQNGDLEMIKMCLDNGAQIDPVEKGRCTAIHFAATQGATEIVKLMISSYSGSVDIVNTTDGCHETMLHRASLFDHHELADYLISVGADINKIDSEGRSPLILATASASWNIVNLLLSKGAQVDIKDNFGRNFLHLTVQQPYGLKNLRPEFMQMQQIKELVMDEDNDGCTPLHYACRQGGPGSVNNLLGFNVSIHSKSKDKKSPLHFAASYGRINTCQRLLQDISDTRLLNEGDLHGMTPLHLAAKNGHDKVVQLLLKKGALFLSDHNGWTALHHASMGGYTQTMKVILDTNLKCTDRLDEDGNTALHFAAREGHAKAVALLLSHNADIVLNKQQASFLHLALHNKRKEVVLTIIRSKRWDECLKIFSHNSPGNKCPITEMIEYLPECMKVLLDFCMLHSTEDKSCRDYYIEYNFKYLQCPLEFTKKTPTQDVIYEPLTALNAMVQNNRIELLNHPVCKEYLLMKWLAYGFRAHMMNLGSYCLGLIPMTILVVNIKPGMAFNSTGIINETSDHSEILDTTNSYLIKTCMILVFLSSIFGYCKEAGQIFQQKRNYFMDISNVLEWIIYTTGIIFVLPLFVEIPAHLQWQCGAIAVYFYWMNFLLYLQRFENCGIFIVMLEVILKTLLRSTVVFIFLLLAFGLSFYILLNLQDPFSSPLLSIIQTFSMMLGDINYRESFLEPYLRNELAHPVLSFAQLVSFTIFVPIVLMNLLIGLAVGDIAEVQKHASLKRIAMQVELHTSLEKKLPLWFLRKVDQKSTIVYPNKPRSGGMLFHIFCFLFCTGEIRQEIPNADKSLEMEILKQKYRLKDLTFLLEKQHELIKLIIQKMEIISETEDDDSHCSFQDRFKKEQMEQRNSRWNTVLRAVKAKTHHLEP

Row | Structure (SMILES) | IC50 [1] [µM] | IC50 [2] [µM] | IC50 [3] [µM] | IC50 [4] [µM] | IC50 [5] [µM]
1 | Cn1c(=O)c2c(CC(=O)Nc3nc(-c4ccc(F)c(C(F)(F)F)c4F)cs3)csc2n(C)c1=O | 2.52 | 3.04 | – | – | –
2 | Cc1oc2c(c1CC(=O)Nc1nc(-c3ccc(OC(F)(F)F)c(Cl)c3)cs1)c(=O)n(C)c(=O)n2C | 4.45 | 5.74 | > 10 | > 10 | –
3 | Cn1c(=O)c2c(CC(=O)Nc3nc(-c4ccc(C(F)(F)F)c(F)c4F)cs3)nsc2n(C)c1=O | 2.83 | 0.132 | > 10 | 17.7 | –
4 | Cn1nc2c(c1CC(=O)/N=c1\scc(-c3ccc(F)c(C(F)(F)F)c3F)n1COP(=O)(O)O)c(=O)n(C)c(=O)n2C | > 10 | > 10 | > 10 | > 10 | 1.58
5 | Cc1oc2c(c1CC(=O)/N=c1\scc(-c3ccc(OC(F)(F)F)c(Cl)c3)n1COP(=O)(O)O)c(=O)n(C)c(=O)n2C | > 10 | > 10 | > 10 | > 10 | 1.18
6 | Cc1oc2c(c1CC(=O)/N=c1\scc(-c3ccc(OC(F)(F)F)c(Cl)c3)n1COC(=O)[C@@H](N)C(C)C)c(=O)n(C)c(=O)n2C | 2.81 | 2.35 | > 10 | > 10 | –
